In US5066783A, “Antiviral peptides and means for treating herpes infections” (priority 1988, dated 1991):
Where a SMILES comes first, the peptide text is derived from it. Bridges are numbered along the chain shown (N, C = ends). [ ]: non-standard residue; d: D form. The star is where a group is joined. Ileψ(thiazoline)Cys = CC[C@H](C)[C@H](N)C1=N[C@H](C(=O)*)CS1; dOrn = NCCC[C@@H](N)C(=O)O

Columns and labels:
HSV-2 = HSV-2 replication (virus yield) in serum-starved BHK 21/C13 cells; assay type: cell-based; conditions: 1 mM
HSV-1 = conditions: A. Alarcon et al., Antiviral Research, 4, 231 (1984); cited from earlier work
[1] = target: HSV-2 ribonucleotide reductase (Human herpesvirus 2, UniProt P89462); test: HSV-2 ribonucleotide reductase inhibition; assay type: biochemical; conditions: data not shown
Sequence of HSV-2 ribonucleotide reductase (P89462 whole entry): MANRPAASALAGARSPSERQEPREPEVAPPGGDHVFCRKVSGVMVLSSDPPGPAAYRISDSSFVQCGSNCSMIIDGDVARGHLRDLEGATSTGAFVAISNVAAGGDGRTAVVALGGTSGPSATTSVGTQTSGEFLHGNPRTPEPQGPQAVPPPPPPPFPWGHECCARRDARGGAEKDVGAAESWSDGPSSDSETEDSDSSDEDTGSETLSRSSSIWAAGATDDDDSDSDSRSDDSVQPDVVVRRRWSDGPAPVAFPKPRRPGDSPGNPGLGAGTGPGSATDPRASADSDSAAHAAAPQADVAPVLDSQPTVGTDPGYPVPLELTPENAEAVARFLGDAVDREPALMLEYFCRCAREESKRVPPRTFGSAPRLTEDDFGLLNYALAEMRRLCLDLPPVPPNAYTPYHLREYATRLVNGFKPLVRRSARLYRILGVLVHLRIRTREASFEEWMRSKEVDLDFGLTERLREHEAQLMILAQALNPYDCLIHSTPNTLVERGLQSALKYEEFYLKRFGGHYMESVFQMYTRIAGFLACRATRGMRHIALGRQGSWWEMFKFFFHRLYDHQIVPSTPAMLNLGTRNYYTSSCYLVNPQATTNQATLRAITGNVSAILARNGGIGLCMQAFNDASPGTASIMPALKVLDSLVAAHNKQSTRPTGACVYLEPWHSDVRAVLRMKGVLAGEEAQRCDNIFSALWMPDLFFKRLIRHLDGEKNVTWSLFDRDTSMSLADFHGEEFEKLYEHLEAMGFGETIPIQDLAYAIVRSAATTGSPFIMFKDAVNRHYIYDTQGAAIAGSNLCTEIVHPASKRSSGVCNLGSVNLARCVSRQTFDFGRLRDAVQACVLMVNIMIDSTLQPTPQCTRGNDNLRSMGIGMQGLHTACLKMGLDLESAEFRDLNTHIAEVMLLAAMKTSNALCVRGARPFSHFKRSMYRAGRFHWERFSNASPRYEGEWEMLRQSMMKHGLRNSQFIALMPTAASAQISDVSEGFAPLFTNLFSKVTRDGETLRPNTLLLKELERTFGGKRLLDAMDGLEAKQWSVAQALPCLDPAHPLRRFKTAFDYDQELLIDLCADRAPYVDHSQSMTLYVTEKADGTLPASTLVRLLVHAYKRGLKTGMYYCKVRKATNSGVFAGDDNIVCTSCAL
Excerpt: The precipitate was removed by centrifugation.

HSV-1 strain MP-12 = test: Guinea pig cutaneous herpes infection model, HSV-1; assay type: in vivo; conditions: summary of TABLE III
HSV-2 strain HG-52 = test: Guinea pig cutaneous herpes infection model, HSV-2; assay type: in vivo; conditions: summary of TABLE IV
[2] = system: cellular ribonucleotide reductase from 96-V-2(600) cells; conditions: up to 1 mM; FIG. 1
[3] = system: cellular ribonucleotide reductase from BHK21/C13 cells; conditions: up to 1 mM; data not shown
[4] = target: ribonucleotide reductase from HSV-1 (strain F)-infected BHK-21/C13 cells (Human herpesvirus 1, UniProt P08543); test: HSV-1 ribonucleotide reductase (CDP reductase) inhibition; conditions: for % CDP REDUCTASE ACTIVITY: 75 μg protein extract
Sequence of ribonucleotide reductase from HSV-1 (strain F)-infected BHK-21/C13 cells (P08543 whole entry): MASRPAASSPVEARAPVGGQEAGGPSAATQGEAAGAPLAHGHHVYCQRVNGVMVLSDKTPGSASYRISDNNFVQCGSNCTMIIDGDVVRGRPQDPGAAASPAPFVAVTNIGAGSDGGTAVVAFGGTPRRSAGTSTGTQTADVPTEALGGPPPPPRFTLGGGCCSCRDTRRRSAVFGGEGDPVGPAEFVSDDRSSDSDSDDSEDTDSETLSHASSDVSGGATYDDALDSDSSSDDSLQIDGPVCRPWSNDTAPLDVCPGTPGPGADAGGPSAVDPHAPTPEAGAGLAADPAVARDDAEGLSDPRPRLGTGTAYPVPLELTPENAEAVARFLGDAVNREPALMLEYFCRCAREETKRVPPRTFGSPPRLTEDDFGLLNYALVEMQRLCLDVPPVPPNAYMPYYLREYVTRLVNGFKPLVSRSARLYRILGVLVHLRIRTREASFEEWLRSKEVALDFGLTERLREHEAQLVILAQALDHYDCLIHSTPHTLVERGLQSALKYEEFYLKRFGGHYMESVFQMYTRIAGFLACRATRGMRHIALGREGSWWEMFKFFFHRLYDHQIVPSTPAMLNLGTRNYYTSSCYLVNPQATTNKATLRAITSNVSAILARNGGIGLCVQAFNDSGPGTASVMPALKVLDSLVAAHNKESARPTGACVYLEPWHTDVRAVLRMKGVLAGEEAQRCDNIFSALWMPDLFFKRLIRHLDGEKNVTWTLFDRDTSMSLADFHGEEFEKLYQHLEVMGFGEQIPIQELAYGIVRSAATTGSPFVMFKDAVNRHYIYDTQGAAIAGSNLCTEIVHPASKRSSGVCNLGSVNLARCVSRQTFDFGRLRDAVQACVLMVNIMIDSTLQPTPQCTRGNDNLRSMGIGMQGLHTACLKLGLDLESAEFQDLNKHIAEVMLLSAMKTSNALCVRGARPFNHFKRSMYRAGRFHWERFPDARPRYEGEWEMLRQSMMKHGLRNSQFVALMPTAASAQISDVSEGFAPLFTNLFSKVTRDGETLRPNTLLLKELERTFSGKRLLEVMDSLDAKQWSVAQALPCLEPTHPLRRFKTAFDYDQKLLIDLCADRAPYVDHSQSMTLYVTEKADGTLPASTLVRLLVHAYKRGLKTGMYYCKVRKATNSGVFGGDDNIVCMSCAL

[5] = system: HSV-1 ribonucleotide reductase; test: Neutralization of HSV-1 ribonucleotide reductase by anti-nonapeptide IgG, preadsorbed with nonapeptide; conditions: FIG. 2
[6] = 4 hours post infection, A (after absorption)
[7] = 4 hours post infection, B (before absorption)
[8] = 12 hours post infection, A (after absorption)
[9] = 12 hours post infection, B (before absorption)
[10] = 24 hours post infection, A (after absorption)
[11] = 24 hours post infection, B (before absorption)
[12] = 36 hours post infection, A (after absorption)
[13] = 36 hours post infection, B (before absorption)

Compound	virus titer (HSV-2; [6]) [PFU/cell]	virus titer (HSV-2; [7]) [PFU/cell]	virus titer (HSV-2; [8]) [PFU/cell]	virus titer (HSV-2; [9]) [PFU/cell]	virus titer (HSV-2; [10]) [PFU/cell]	virus titer (HSV-2; [11]) [PFU/cell]	virus titer (HSV-2; [12]) [PFU/cell]	virus titer (HSV-2; [13]) [PFU/cell]	also measured
CC[C@H](C)[C@H](N)C1=N[C@H](C(=O)N[C@@H](CC(C)C)C(=O)N[C@H](CCC(=O)O)C(=O)N[C@H](C(=O)N[C@H]2CCCCNC(=O)[C@H](CC(N)=O)NC(=O)[C@@H](CC(=O)O)NC(=O)[C@H](Cc3cnc[nH]3)NC(=O)[C@@H](Cc3ccccc3)NC(=O)[C@H]([C@@H](C)CC)NC(=O)[C@@H](CCCN)NC2=O)[C@@H](C)CC)CS1 [Bacitracin, bacitracin, reference compound] ({Ileψ(thiazoline)Cys}-L[dE]IK[dOrn]I[dF]H[dD]N; lactam 4-C)	0.0005	0.0007	0.007	0.005	0.06	0.06	0.06	0.03	activity against HSV-1 when used alone (HSV-1): inactive
CC(C)C[C@H](NC(=O)[C@H](CC(=O)O)NC(=O)[C@H](CC(N)=O)NC(=O)[C@@H](NC(=O)[C@@H](NC(=O)[C@H](C)NC(=O)CNC(=O)[C@H](C)NC(=O)[C@@H](N)Cc1ccc(O)cc1)C(C)C)C(C)C)C(=O)O [HSV 7-15, L-tyrosyl-L-alanyl-glycyl-L-alanyl-L-valyl-L-valyl-L-asparagyl-L-aspartyl- L-leucine]	0.001	0.0006	0.01	0.006	0.5	0.4	1.1	0.8	inhibition curve for the HSV-2 enzyme compared with HSV-1 [1]: nearly identical; shortening the healing time and diminishing the symptoms of HSV-1 infection (HSV-1 strain MP-12): effective; shortening healing time and alleviating the symptoms of HSV-2 (HSV-2 strain HG-52): effective; sensitivity of cellular enzyme to the peptide [2]: completely insensitive; sensitivity of cellular enzyme to the peptide [3]: completely insensitive; % CDP REDUCTASE ACTIVITY ([4]; 10 μM peptide): 96%; % CDP REDUCTASE ACTIVITY ([4]; 25 μM peptide): 94%; % CDP REDUCTASE ACTIVITY ([4]; 50 μM peptide): 80%; % CDP REDUCTASE ACTIVITY ([4]; 100 μM peptide): 45%; % CDP REDUCTASE ACTIVITY ([4]; 400 μM peptide): 9%; concentration giving total inhibition ([4]; FIG. 1, 50 μg viral enzyme): 400 µM; nonapeptide concentration at which equivalence was reached (IgG neutralizing capacity eliminated) [5]: 10 µM
